Test results as given in patent US11730769B2, “Compositions and methods for Williams Syndrome (WS) therapy” (MASSACHUSETTS INSTITUTE OF TECHNOLOGY, priority 2017, dated 2023).
Entries after “also recorded” stand apart in the source; their conditions may differ. Where two headings read alike, the source gives them in different places.

What was measured:
Gtf2i cKO mice [1] = assay: Intra-cortical microstimulation (ICMS) and EMG recording (corticospinal output); format: in vivo; conditions: acute 4-AP 2 mg/kg i.p., test 30 to 60 minutes after injection; cKO and control mice
Protocol: ICMS and EMG recording protocol was adopted from previous studies (71, 72). Each animal was anesthetized with ketamine-xylazine (100 mg/kg ketamine, 10 mg/kg xylazine, i.p.). Anesthesia level was maintained at a steady level to that animal was unresponsive to toe pinch while muscle tone was present.
A digital stereotaxic frame was used to mount the animal's head and guide stimulation electrode (stainless steel, 0.5 MOhm; World Precision Instruments) over an array of motor cortical sites (0.9 mm caudal and 0.6 mm rostral to Bregma, 0.9 mm to 1.8 mm lateral to midline, with 300 μm spacing between sites). Stimulation electrode was inserted into the cortex at 500 μm depth, targeting layer V motor neurons. The exposed brain area was immersed with silicon oil to avoid dehydration. Electrical stimulation (biphasic, 0.2 ms pulse width, 333 Hz, 45 ms) was adjusted between 100 to 300 μA and located at the position that has the lowest threshold to trigger EMG signal. Stimulation intensity of two folds of threshold was then used for EMG recording and analysis. To perform EMG recording, an incision was made on hindlimb to expose the muscles while fascia remained intact. […] EMG signals were acquired using differential AC amplifier (1700, A-M Systems, WA) with 10-1000 Hz bandpass filter, sampled at 5 kHz using a digitizer (Digidata 1440A, Axon Instruments), and analyzed by pClamp Software. […]

Gtf2i cKO mice [2] = assay: Evoked field potential recordings in corpus callosum; format: in vivo; conditions: acute 4-AP administration
Protocol: In vivo evoked field potential recording in corpus callosum was referenced to that from in vitro studies (69, 70). Animals were anesthetized with urethane (1,000 mg/kg) and placed on a stereotaxic instrument. Body temperature was maintained by thermostat at 37.5-38° C. Craniotomy was performed and dura was kept intact. Stainless steel stimulation electrode (300˜500 kOhm, WPI) was positioned in corpus callosum in left hemisphere (1.5 mm posterior to Bregma, 1 mm lateral from midline, 1,000˜1,300 μm beneath cortical surface), and tungsten recording electrode (2˜3 MOhm, FHC) was positioned in corpus callosum at same coronal plane in right hemisphere (1.5 mm posterior to Bregma, 1 mm from midline, 1,000˜1,300 μm beneath cortical surface). Electrical stimulation (0˜200 uA, 0.2 ms pulse width, 0.2 Hz) was delivered while both positions of stimulation and recording electrodes were slightly adjusted to optimize signal. Signals were filtered at 0.1-3,000 Hz and gained at 1,000 times (Model 1700, A-M Systems), digitized and sampled at 10,000 Hz (Digidata 1440A, Molecular Devices), and analyzed offline (Clampfit). […] Response amplitude was determined by measuring the vertical distance from negative peak to the tangent joining preceding and following positivities. […]

Gtf2i cKO mice [3] = assay: Horizontal ladder walking test; format: in vivo; conditions: acute 4-AP 1 mg/kg i.p., three hours post administration
Protocol: Mice were tested for their ability to walk on a horizontal ladder with irregularly spaced rungs, following the procedure described previously (44). Animals were trained to cross the ladder until their performance achieved the plateau (with a forelimb error of 20% or less). The irregular pattern was changed from trial to trial during training. All trials were video recorded with Hotshot e64 and paw placement was analyzed. The paw placement on rungs were categorized as Hit (platar contact and digits closure), Miss (paw falls between rungs) and Slip (imprecise contact with one or few digits). Experimenter was blinded to genotypes.
Mice were habituated to needle injections (i.p.) for three days before behavioral tests, by two i.p. injections of 200 μL of saline administered per day. […] All behavioral tests were therefore accomplished three hours post systemic administration. Saline-injected mice in each genotype (Control or cKO mice) were referred as the baseline group for the treatment group, which was injected with 4-AP. Experimenter was blinded to genotypes.

Gtf2i cKO mice [4] = assay: Three-chamber social preference test; format: in vivo; conditions: acute 4-AP 1 mg/kg i.p., three hours post administration
Protocol: Stranger mice were wildtype S129 Sv males (Jackson Laboratory) with matched age and body weight to test mice. Stranger mice were habituated by placing them inside an inverted wire cup for 30 min, two sessions per day for three consecutive days before tests. Each stranger mouse was used a maximum of two times per day. The social test apparatus was made of a clear Plexiglas box (65 cm (L)×44 cm (W)×30 cm (H)) with a removable floor and partitions dividing the box into left, center, and right chambers. The center chamber (21 cm×22 cm) was half the width of the left and right chambers (each is 21 cm×44 cm). These three chambers were interconnected with 5 cm openings between each chamber that could be closed or opened manually with a lever-operated door. The inverted wire cups containing the stranger mice were cylindrical, 10 cm in height, with a bottom diameter of 10 cm and with metal bars spaced 0.8 cm apart. A weighted cup was placed on top of the inverted wire cups to prevent the test mice from climbing onto the wire cup. […] Then, experimenter blinded to genotypes analyzed for timespent in close proximity to the stranger mouse or object was analyzed using the Noldus Ethovison XT software. Social preference index was calculated as follows: (time in close interaction with stranger)/(time in close interaction with object). […]

Shaker channels = conditions: at concentration of 1 mM; cited from earlier work
[5] = test system: normal adult myelinated axons; conditions: cited from earlier work
[6] = test system: chronically injured spinal cord of guinea pigs; conditions: cited from earlier work
[7] = oral, non-sustained release, animals; cited from earlier work
[8] = cited from earlier work
[9] = patients with MS, all studies; cited from earlier work
[10] = cited from earlier work; remark: listed apart in the source
[11] = cited from earlier work; remark: listed apart in the source
Gtf2i cKO mice [12] = assay: Number of myelinating oligodendrocytes (immunofluorescence); format: in vivo; conditions: clemastine 10 mg/kg daily by gastric gavage for 14 days
Protocol: Basic immunofluorescence procedure was used as previously described (68). Mice were deeply anesthetized with isoflurane and transcardially perfused with 15 ml ice-cold PBS solution followed by 15 ml fresh ice-cold 4% paraformaldehyde (PFA) in PBS. Brains were dissected and kept in 4% PFA overnight at 4° C. and then sectioned at 100 μm thickness by vibratome (Leica). Floating brain slices were washed 3 times, 5 min each, with PBS and permeabilized with 1.2% Triton X-100 in PBS for 15 min at room temperature. Slices were then washed 3 times, 5 min each, followed by blocking with 5% normal goat serum, 2% BSA, 0.2% Triton X-100 in PBS for 1 h at room temperature. Primary antibodies diluted in blocking buffer were applied to sections overnight at 4° C. […]
To quantify cellular properties in the cortex, images were taken by an experimenter blinded to genotypes with a 10× magnification at the motor cortex area at bregma 0.5 mm. […] The midline of the CC was imaged at the same bregma, using a 40× magnification, and the whole depth of the CC was imaged by taking 10 images as part of a Z-stack serial imaging, and then all images were stacked together to a single image which was then analyzed for quantification. Cell numbers were quantified blindly with automation using ImageJ. […] The pixel intensity of H3ac and H3K9me3 was quantified using ImageJ, as was previously described (37). […]

socially isolated mice = conditions: cited from earlier work
N-type calcium channels = N-type calcium channels (Homo sapiens, UniProt Q00975); conditions: read-out: EC50 for activation of N-type calcium channels; cited from earlier work
[13] = molecular target: P/Q-type calcium channels (Homo sapiens, UniProt O00555); conditions: read-out: EC50 for activation of P/Q-type calcium channels; cited from earlier work
L-type calcium channels = conditions: read-out: EC50 for activation of L-type calcium channels; cited from earlier work
[14] = in vivo; cited from earlier work
[15] = phosphate salt; does not require refrigeration; cited from earlier work
rats = conditions: cited from earlier work

Chain of P/Q-type calcium channels (O00555 whole entry): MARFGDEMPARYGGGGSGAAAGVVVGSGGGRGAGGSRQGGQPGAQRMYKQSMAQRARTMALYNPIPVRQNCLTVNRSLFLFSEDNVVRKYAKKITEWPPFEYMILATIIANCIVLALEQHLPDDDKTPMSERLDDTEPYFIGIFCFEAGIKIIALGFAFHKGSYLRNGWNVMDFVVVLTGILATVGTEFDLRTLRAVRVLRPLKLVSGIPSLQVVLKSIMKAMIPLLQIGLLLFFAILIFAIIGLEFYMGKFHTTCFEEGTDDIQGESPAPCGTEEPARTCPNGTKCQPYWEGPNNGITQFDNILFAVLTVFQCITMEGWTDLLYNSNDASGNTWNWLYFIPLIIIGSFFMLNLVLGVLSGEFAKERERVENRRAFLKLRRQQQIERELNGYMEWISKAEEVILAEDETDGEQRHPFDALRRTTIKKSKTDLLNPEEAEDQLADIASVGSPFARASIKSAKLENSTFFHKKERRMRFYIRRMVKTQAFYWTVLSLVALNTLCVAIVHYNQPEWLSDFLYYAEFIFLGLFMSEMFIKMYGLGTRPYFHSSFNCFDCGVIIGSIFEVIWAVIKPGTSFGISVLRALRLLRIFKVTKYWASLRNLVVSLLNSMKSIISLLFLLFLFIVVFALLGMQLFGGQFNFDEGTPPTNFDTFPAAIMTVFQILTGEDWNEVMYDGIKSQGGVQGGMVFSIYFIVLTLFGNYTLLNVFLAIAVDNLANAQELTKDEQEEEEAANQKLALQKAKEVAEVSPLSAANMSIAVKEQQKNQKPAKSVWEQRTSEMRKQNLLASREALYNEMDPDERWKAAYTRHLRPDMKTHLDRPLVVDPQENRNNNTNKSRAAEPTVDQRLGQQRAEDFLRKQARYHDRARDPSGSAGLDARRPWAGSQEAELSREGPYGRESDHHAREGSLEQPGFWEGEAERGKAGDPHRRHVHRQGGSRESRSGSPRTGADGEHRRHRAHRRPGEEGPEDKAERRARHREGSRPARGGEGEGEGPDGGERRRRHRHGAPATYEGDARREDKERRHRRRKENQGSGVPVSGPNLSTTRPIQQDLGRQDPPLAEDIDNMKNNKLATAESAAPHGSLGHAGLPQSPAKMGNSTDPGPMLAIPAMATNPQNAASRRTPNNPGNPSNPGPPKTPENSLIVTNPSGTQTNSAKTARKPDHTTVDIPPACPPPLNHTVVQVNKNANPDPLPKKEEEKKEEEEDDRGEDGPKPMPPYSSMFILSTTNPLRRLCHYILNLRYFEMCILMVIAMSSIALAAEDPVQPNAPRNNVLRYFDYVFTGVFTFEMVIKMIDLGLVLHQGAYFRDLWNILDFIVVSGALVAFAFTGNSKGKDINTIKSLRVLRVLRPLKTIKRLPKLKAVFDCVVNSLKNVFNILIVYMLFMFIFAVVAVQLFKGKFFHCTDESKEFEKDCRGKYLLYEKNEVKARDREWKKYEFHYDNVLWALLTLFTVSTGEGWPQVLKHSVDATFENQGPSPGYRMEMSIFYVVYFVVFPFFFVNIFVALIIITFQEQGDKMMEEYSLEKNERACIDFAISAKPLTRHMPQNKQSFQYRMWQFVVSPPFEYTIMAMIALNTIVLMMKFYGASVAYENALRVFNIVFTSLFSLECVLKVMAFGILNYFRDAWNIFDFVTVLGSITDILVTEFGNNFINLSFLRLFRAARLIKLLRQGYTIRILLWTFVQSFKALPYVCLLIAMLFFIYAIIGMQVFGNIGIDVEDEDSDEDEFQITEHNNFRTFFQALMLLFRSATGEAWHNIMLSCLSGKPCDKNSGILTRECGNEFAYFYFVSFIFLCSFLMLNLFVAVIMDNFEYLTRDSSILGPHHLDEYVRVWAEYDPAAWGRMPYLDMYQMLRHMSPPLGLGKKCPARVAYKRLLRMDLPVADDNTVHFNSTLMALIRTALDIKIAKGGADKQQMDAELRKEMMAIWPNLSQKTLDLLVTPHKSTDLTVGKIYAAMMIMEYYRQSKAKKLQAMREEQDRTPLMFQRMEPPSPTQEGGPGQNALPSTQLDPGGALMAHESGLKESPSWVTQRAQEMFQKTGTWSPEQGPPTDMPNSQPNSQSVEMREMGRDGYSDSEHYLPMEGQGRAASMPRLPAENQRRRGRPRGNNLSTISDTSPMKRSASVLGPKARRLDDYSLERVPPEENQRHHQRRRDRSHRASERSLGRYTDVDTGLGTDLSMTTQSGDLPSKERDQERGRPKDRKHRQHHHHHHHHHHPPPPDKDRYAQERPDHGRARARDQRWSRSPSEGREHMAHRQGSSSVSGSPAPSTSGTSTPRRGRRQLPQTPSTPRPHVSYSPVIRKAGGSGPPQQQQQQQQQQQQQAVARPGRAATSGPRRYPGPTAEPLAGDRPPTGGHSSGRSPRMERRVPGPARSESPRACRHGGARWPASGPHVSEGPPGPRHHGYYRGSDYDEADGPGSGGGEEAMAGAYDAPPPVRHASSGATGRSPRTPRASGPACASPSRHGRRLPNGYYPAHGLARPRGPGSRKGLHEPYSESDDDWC
Chain of P/Q-type calcium channels (P54284 whole entry partner): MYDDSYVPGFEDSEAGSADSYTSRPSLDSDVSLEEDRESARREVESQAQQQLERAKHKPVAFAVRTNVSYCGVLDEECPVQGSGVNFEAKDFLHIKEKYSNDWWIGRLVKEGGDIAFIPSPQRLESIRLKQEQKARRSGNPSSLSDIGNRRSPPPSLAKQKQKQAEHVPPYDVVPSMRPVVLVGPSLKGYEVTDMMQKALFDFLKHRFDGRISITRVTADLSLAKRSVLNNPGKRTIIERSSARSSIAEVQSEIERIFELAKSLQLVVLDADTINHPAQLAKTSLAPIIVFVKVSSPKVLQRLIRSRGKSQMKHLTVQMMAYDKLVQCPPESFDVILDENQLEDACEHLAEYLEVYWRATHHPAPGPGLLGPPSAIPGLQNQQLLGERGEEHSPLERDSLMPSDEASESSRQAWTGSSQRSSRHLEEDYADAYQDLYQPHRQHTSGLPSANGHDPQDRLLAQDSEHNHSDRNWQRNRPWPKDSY
Chain of P/Q-type calcium channels (P54289 25-946 partner limits assumed): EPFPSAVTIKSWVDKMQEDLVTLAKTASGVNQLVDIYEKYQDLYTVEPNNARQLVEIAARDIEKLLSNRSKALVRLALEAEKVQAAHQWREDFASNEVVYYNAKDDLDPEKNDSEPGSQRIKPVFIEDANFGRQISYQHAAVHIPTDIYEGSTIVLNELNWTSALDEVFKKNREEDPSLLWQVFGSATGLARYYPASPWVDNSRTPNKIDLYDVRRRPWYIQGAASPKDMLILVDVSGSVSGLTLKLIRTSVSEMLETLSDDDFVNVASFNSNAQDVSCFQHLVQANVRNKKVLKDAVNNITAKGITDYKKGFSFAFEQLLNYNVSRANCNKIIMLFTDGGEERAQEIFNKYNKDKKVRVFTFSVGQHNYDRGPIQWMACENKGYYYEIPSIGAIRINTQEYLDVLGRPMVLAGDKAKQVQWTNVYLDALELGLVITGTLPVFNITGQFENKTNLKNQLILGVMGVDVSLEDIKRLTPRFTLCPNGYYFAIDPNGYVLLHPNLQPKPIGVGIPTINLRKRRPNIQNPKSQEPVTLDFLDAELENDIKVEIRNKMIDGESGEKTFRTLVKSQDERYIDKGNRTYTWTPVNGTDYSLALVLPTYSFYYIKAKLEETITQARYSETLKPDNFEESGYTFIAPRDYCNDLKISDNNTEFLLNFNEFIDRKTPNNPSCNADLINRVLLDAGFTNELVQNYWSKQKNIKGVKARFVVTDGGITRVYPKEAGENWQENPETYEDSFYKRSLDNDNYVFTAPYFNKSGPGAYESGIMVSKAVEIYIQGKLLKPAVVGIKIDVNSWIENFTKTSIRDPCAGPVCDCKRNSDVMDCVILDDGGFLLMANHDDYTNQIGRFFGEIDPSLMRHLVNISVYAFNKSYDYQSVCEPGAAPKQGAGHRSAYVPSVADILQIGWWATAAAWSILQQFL
Chain of P/Q-type calcium channels (P54289 947-1103 partner limits assumed): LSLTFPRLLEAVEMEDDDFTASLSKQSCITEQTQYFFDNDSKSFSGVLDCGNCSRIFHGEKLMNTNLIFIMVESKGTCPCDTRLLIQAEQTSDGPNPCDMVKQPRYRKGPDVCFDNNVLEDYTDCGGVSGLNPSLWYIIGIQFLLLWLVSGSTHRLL

Nc1ccncc1 [4-AP, 4-aminopyridine]
EMG peak amplitude (cortico-spinal tract) (Gtf2i cKO mice [1]): increased significantly; also recorded: increased following 4-AP acute administration
EMG response latency (cortico-spinal tract) (Gtf2i cKO mice [1]): significantly shortened; also recorded: significantly decreased and normalized to control levels
Peak amplitude of evoked potential in corpus callosum (Gtf2i cKO mice [2]): increased following 4-AP acute administration and normalized to control levels
Peak latency of evoked potential in corpus callosum (Gtf2i cKO mice [2]): significantly decreased and normalized to control levels
Fine motor skills, horizontal irregular ladder walking, forelimb and hindlimb (Gtf2i cKO mice [3]): normalized fine motor skills; also recorded: rescued
Social preference (index), three-chamber test (Gtf2i cKO mice [4]): normalized social preference; also recorded: decreased and normalized to control levels
Inhibition of Shaker channels (Shaker channels): selectively and reversibly inhibits
Concentrations causing gradual depolarization of the axon resting potential [5]: above 1 mM
Concentrations at which the action potential shows little or no sensitivity ([5]; normal adult myelinated axons): below 100 μM
Most effective concentration [6]: about 10 μM
Time of peak plasma concentrations [7]: within one hour
Cmax ([8]; 10 mg oral solution): 42.7 ng/mL
Absorption from the gastrointestinal tract ([8]; oral): completely absorbed
Absolute bioavailability ([8]; two formulations of IR tablets): 95%
Incidence of adverse effects [9]: less than 5%

Nc1ccncc1N.O=P(O)(O)O [Amifampridine, pyridine-3,4-diamine]
Time to maximum concentrations in blood plasma ([10]; 91 healthy subjects, after a fatty meal): 1.3 (±0.9) hours
Time to maximum concentrations in blood plasma ([10]; 91 healthy subjects, without food): 0.6 (±0.25) hours
Area under the curve (AUC) ([10]; 91 healthy subjects): 117 ± 77 ng·h/mL
Biological half-life ([10]; 91 healthy subjects): 2.5±0.7 hrs
AUC increase in slow metabolizers as compared to fast metabolizers ([10]; N-acetyltransferase activity): up to 9 fold
Eliminated via kidneys and urine as N-acetylamifampridine ([10]; human, in vivo): 74-81%
Eliminated via kidneys and urine in unchanged form ([10]; human, in vivo): 19%
Absorbed from the gut ([10]; oral): 93-100%
Solubility in water ([11]; 20° C.): 25 g/L
Solubility in diethyl ether [11]: only slightly
Solubility in methanol, ethanol and hot water [11]: readily soluble

CN1CCCC1CCOC(C)(c1ccccc1)c1ccc(Cl)cc1 (stereo not shown) [Clemastine]
Number of myelinating oligodendrocytes (mOLs) in cortex and CC midline (Gtf2i cKO mice [12]): normalized
Number of myelinating oligodendrocytes (mOLs) in cortex and CC midline (Gtf2i cKO mice [12]; listed as clemastine): significantly increased and normalized to control levels
Impaired myelination (socially isolated mice; oral clemastine, prolonged social isolation): rescued
Social avoidance behavior (socially isolated mice; oral, 2 weeks, adult mice following prolonged social isolation): successfully reverse social avoidance behavior

CCCn1cnc2c(NCc3ccc(C)s3)nc(N[C@H](CC)CO)nc21 [GV-58]
EC50 (N-type calcium channels): 6.8 µM
EC50 [13]: 9.9 µM
EC50 (L-type calcium channels): > 100 µM

CC[N+](CC)(CC)CC.[Br-] [TEA, Tetraethylammonium]
Oral activity [14]: not orally active

Nc1ccncc1N.O=P(O)(O)O [amifampridine phosphate, 4-aminopyridine-3-ylammonium dihydrogen phosphate]
Solubility in water ([11]; phosphate salt): readily soluble in water
Stability [15]: stable

Opicinumab: fully human monoclonal antibody, LINGO-1 protein antagonist (Anti-Lingo-1)
Remyelination (rats): 90%
